The test has as its target T1, FAAH (Homo sapiens, UniProt O00519).
T1 construct: FAAH activity was assayed in the respective homogenates described herein (Rat brain, Mouse brain or Human brain); tissue Analytical Biological Services (ABS), Inc; host or cells: human brain cortex membrane homogenate
T1 sequence (O00519 1-579): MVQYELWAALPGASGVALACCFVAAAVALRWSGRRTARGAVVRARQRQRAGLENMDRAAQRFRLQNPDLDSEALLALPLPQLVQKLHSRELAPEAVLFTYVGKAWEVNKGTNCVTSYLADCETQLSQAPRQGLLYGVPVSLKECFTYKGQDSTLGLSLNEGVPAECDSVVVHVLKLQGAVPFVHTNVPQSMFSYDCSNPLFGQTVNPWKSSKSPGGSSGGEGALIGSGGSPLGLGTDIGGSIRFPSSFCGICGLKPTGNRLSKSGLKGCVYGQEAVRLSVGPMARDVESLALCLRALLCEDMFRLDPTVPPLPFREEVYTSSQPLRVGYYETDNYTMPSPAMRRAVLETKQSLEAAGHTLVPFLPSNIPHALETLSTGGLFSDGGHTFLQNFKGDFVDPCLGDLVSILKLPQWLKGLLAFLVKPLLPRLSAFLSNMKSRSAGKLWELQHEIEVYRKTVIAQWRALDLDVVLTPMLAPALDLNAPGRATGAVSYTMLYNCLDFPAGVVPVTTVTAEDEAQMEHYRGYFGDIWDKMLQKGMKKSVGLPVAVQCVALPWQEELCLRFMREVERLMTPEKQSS
The experiment in a line: FAAH inhibition, human brain membrane homogenate assay. The test is classed as biochemical. Conditions: average; FAAH extracted from human brain homogenate; read-out: Human brain FAAH Extract IC50. On the procedure: About 10 g of frozen normal human brain cortex tissue was obtained (e.g., from Analytical Biological Services (ABS), Inc. (Wilmington, Del.)). The brain tissue was thawed and transferred to a large ceramic mortar on ice. 50 mL of ice-cold “homogenization buffer” (20 mM HEPES buffer, pH 7.0, with 1 mM MgCl2) was added to the mortar and the tissue was homogenized with a pestle. The homogenate was centrifuged at 36,500 g for 20 minutes at 4° C. The supernatants were discarded and the pellets were re-suspended in homogenization buffer and centrifuged as before. The supernatants were again discarded and the pellets were re-suspended in 30 mL homogenization buffer and incubated in a 37° C. water bath for 20 minutes. The homogenate was then centrifuged as before. The supernatant was discarded and the membrane pellets were re-suspended in 30 mL “resuspension buffer” (50 mM Tris-HCl buffer, pH 7.4, containing 1 mM EDTA and 3 mM MgCl2). A Bradford Protein assay was performed to determine protein concentration. The protein was aliquotted into screw cap Cryo tubes each containing ˜200 μL, flash frozen in liquid nitrogen and stored at −80° C. until used for the assay.
FAAH activity was assayed in the respective homogenates described herein (Rat brain, Mouse brain or Human brain) for certain exemplary substrate compounds using a modification of the method of Omeir et al. (1995 Life Sci 56:1999) and Fowler et al. (1997 J. Pharmacol Exp Ther 283:729). For assay of FAAH activity in rat brain membrane (RBM) homogenates, RBM homogenates (7 μg protein in 20 μL final volume of 10 mM Tris pH 6.5) were mixed with 180 μL of a mixture of the following: 2.0 μM unlabelled anandamide, 0.03 μCi radio labeled anandamide [ethanolamine 1-^3H] (40-60 Cis/mmol, product number ART-626, American Radiolabeled Chemicals, St. Louis, Mo.), 1 mg/mL Bovine Serum Albumin (fatty acid-free BSA, electrophoresis grade, Sigma, St. Louis, Mo.), 10 mM Tris-HCl (pH 6.5), and 1 mM EDTA in the presence and absence of test compounds (vehicle was DMSO at a final concentration of 1%) and incubated for 10 minutes at 37° C. Samples were placed on ice to terminate the reactions.
^3H-ethanolamine product and un-reacted ^3H-anandamide substrate were then separated either: (1) by using chloroform/methanol extraction or (2) by passing the reaction mixture through a glass fiber filter containing activated charcoal. Samples were extracted with chloroform/methanol by adding 0.4 mL of chloroform/methanol (1:1 v/v), vigorously mixing the samples, and separating the aqueous and organic phases by centrifugation. Radioactivity (corresponding to FAAH-catalyzed breakdown of ^3H-anandamide) found in aliquots (0.2 mL) of the aqueous phase was determined by liquid scintillation counting with quench correction. IC50 values were determined as described by Jonsson et al. (2001 Br. J. Pharmacol. 133:1263). Alternatively, reactions were purified using a modification of the solid-phase extraction method described by Wilson et al (2003 Anal. Biochem. 318:270). This method was modified as follows: after reactions were incubated at 37° C. for 10 minutes and chilled on ice, the reaction mixtures were acidified by adding 10 μL of sodium phosphate solution [0.5M (pH 2.0)]. Next, 90 μL aliquots of the acidified reaction mixtures were applied to activated charcoal (that had been previously washed with methanol as described by Wilson et al. (supra)) containing 80 μL of water on top of a glass fiber filter, centrifuged, and the radioactivity in the eluate was counted as described previously by Wilson et al. (supra).
Table 1 provides activity data for certain compounds tested for inhibition of FAAH using the FAAH rat, mouse and human brain homogenate assays. […]

This passage reports IC50 results from patent US20130109721A1, “FAAH Inhibitors” (Ironwood Pharmaceuticals, Inc., priority 2009, published 2013).

Molecules are shown by their SMILES. pIC50: −log10 of the molar value.

`COc1cc(NC(=O)C(=O)c2cc(C)n(Cc3ccc(Cl)cc3)c2C)ccn1` [Compound I-01, 2-(1-(4-chlorobenzyl)-2,5-dimethyl-1H-pyrrol-3-yl)-N-(2-methoxypyridin-4-yl)-2-oxoacetamide]: the negative logarithm of the IC50 (pIC50) (in general, −log10 of the IC50, conventionally taken in molar units) was 6.27. Turning to `Cc1c(C(=O)C(=O)Nc2ccncc2)c2cc(Cl)sc2n1Cc1ccc(Cl)cc1` [Compound I-02, 2-(2-chloro-6-(4-chlorobenzyl)-5-methyl-6H-thieno[2,3-b]pyrrol-4-yl)-2-oxo-N-(pyridin-4-yl)acetamide], the pIC50 was 7.01.

Take `COc1cc(NC(=O)C(=O)c2c(C)n(Cc3ccc(Cl)cc3)c3sc(Cl)cc23)ccn1` [Compound I-03, 2-(2-chloro-6-(4-chlorobenzyl)-5-methyl-6H-thieno[2,3-b]pyrrol-4-yl)-N-(2-methoxypyridin-4-yl)-2-oxoacetamide]: the negative-log IC50 (pIC50) is 7.03. The value for `Cc1cc2c(s1)c(C(=O)C(=O)Nc1ccncc1)c(C)n2Cc1ccc(Cl)cc1` [Compound I-04, 2-(4-(4-chlorobenzyl)-2,5-dimethyl-4H-thieno[3,2-b]pyrrol-6-yl)-2-oxo-N-(pyridin-4-yl)acetamide] was 7.29. As for `COc1cc(NC(=O)C(=O)c2c(C)n(Cc3ccc(Cl)cc3)c3cc(C)sc23)ccn1` [Compound I-05, 2-(4-(4-chlorobenzyl)-2,5-dimethyl-4H-thieno[3,2-b]pyrrol-6-yl)-N-(2-methoxypyridin-4-yl)-2-oxoacetamide], the figure is 8.40; as for `Cc1c(C(=O)C(=O)Nc2cccc(Cl)c2)c2sccc2n1Cc1ccc(Cl)cc1` [Compound I-06, 2-(4-(4-chlorobenzyl)-5-methyl-4H-thieno[3,2-b]pyrrol-6-yl)-N-(3-chlorophenyl)-2-oxoacetamide], 5.82; as for `COc1cc(NC(=O)C(=O)c2c(C)n(Cc3ccc(Cl)cc3)c3ccsc23)ccn1` [Compound I-07, 2-(4-(4-chlorobenzyl)-5-methyl-4H-thieno[3,2-b]pyrrol-6-yl)-N-(2-methoxypyridin-4-yl)-2-oxoacetamide], 7.74. As to `COc1cc(NC(=O)C(=O)c2cc(C)n(Cc3ccc(F)cc3)c2C)ccn1` [Compound I-17, 2-(1-(4-fluorobenzyl)-2,5-dimethyl-1H-pyrrol-3-yl)-N-(2-methoxypyridin-4-yl)-2-oxoacetamide], the negative-log IC50 (pIC50) is 5.91. The value for `COc1cc(NC(=O)C(=O)c2cc(-c3ccccc3)n(Cc3ccc(Cl)cc3)c2C)ccn1` [Compound I-27, 2-(1-(4-chlorobenzyl)-2-methyl-5-phenyl-1H-pyrrol-3-yl)-N-(2-methoxypyridin-4-yl)-2-oxoacetamide] was less than 4.30; that for `Cc1cc(C(=O)C(=O)Nc2ccnc(Cl)c2)c(C)n1Cc1ccc(Cl)cc1` [Compound I-28, 2-(1-(4-chlorobenzyl)-2,5-dimethyl-1H-pyrrol-3-yl)-N-(2-chloropyridin-4-yl)-2-oxoacetamide] was 6.05; that for `Cc1cc(C(=O)C(=O)Nc2ccncc2)c(C)n1Cc1ccc(Cl)cc1` [Compound I-30, 2-(1-(4-chlorobenzyl)-2,5-dimethyl-1H-pyrrol-3-yl)-2-oxo-N-(pyridin-4-yl)acetamide] was 5.47.

As for `Cc1cc(C(=O)C(=O)Nc2cccnc2)c(C)n1Cc1ccc(Cl)cc1` [Compound I-31, 2-(1-(4-chlorobenzyl)-2,5-dimethyl-1H-pyrrol-3-yl)-2-oxo-N-(pyridin-3-yl)acetamide], the negative logarithm of the IC50 (pIC50) was 5.49. As to `Cc1cc(C(=O)C(=O)Nc2ccccc2)c(C)n1Cc1ccc(Cl)cc1` [Compound I-32, 2-(1-(4-chlorobenzyl)-2,5-dimethyl-1H-pyrrol-3-yl)-2-oxo-N-phenylacetamide], the pIC50 is less than 5.30.
